Results reported in PMC4747952, “Development of TASP0410457 (TASP457), a novel dihydroquinolinone derivative as a PET radioligand for central histamine H3 receptors” (EJNMMI Research, 2016).

Key:
[1] = test system: H3Rs; assay: PET in anesthetized rhesus monkeys with arterial blood sampling; assay type: in vivo, rhesus monkey; conditions: for V T, Logan graphical analysis, Scan duration 60 min / V T, Logan graphical analysis, Scan duration 70 min / V T, Logan graphical analysis, Scan duration 80 min / V T, Logan graphical analysis, Scan duration 90 min / V T, One-tissue compartment model, Scan duration 90 min: Mean ± S.D., n = 3
Description: For a detailed pharmacokinetic PET study using [^11C]TASP0410457 with arterial blood sampling, three male rhesus monkeys weighing 5–7 kg were scanned with the SHR-7700 PET camera. The monkeys were initially anesthetized with an intramuscular injection of ketamine (10 mg/kg), intubated, and subsequently kept anesthetized with 1–2 % isoflurane. Electrocardiogram and blood oxygen saturation levels were monitored, and body temperature was maintained by a heating pad throughout the experiment. Arterial blood (1–2.5 mL) was collected from the saphenous artery at 10, 20, 30, 40, 50, 60, and 90 s and at 2, 3, 4, 5, 10, 15, 30, 60, and 90 min after the intravenous injection of [^11C]TASP0410457 (injected radioactivity, 159 ± 30 MBq; mass dose, 1.2 ± 0.3 μg; mean ± S.D., n = 3).
The arterial blood was centrifuged at 20,000×g for 3 min at 4 °C to separate the plasma. Radioactivity in total blood and plasma was determined using a 1480 WIZARD gamma counter (PerkinElmer), and was decay-corrected to the injection time. Arterial plasma collected at 1, 5, 15, 30, 60, and 90 min was used to analyze radioactive metabolites of [^11C]TASP0410457. Two hundred microliters of plasma was mixed with 200 μL of ice-cold acetonitrile, and the mixtures were centrifuged at 20,000×g for 3 min at 4 °C. Fifty to […] of the resultant supernatants were separated using HPLC (JASCO, Tokyo, Japan) on an Atlantis T3 column (4.6 × 50 mm, Waters, Milford, MA) with a mobile phase consisting of 10 mM of ammonium acetate/acetonitrile (68:32) at a flow rate of 1 mL/min. The fraction of unmetabolized [^11C]TASP0410457 was determined by measuring the areas of the HPLC peaks corresponding to [^11C]TASP0410457 and its radiometabolites.
Emission scan images were reconstructed using a 4.0-mm Colsher filter. ROIs were placed on the anterior cingulate cortex, striatum, thalamus, hippocampus, cerebellum, frontal cortex, temporal cortex, occipital cortex, and pons-medulla using PMOD software, with reference to an MRI template as described previously. Tissue TACs were generated as in the rat PET image analysis.
For PET study in anesthetized monkeys, metabolite-corrected plasma TACs were used as arterial input functions. The regional total volume of distribution (VT) was estimated by Logan’s graphical plot and one-tissue compartment model using PMOD software.

[2] = Radiochemical stability in the final formulation; assay type: physicochemical; conditions: at 1 h after the end of radiosynthesis
Description: [^11C]TASP0390136, [^11C]TASP0410457, and [^11C]TASP0434988 were synthesized as shown in Fig. 1a–c (detailed procedures are described in Additional file 1: Supplemental methods) using a homemade automated synthesis system. The radiochemical purities and specific activities of the radioligands, which were analyzed as described in Additional file 1: Supplemental Methods, along with their radiochemical yields and average synthesis times, are summarized in Table 1. Analytical HPLC chromatogram of each radioligand is shown in Additional file 2-4: Figures S1-S3. The radiochemical stabilities of [^11C]TASP0410457 and [^11C]TASP0434988 in the final formulation were >99 % at 1 h and 40 min, respectively, after the end of radiosynthesis.

[3] = test system: H3Rs; assay: In vitro autoradiography, monkey brain sections; assay type: binding, rhesus monkey; conditions: in the presence of 10 μM of unlabelled TASP0410457 or ciproxifan
Description: Twenty-micrometer-thick sagittal rat and monkey brain sections were incubated in an autoradiography buffer containing 5 nM [^11C]TASP0410457 as described in Additional file 1: Supplemental methods. The binding was also performed in the presence of 10 μM of unlabeled TASP0410457, thioperamide, or ciproxifan for the rat sections and 10 μM of TASP0410457 or ciproxifan for the monkey sections to assess the specific radioligand binding.
(25:75) at a flow rate of 1 mL/min. A representative chromatogram of [11C]TASP0390136 is shown in […]
Twenty-micrometer-thick sagittal rat brain sections were pre-incubated with autoradiography buffer (50 mM Tris containing 120 mM NaCl, 2 mM KCl, 1 mM MgCl2, and 1 mM CaCl2, pH7.4) for 30 min, then incubated in the autoradiography buffer containing 5 nM [11C]TASP0410457 at 25°C for 1 h. The sections were washed two times with ice-cold autoradiography buffer for 5 min, rinsed with ice-cold water for 10 s, and then quickly dried. The radioactivity retained on the sections was determined using a BAS imaging plate and the BAS5000 system (GE Healthcare, Piscataway, NJ). For a blocking study, brain slices were reacted with [11C]TASP0410457 in the presence of […] of TASP0410457, thioperamide, or ciproxifan.
Similarly, autoradiography using […] sagittal rhesus monkey brain sections was conducted. […]

[4] = parameters: method as in earlier work; conditions: humans; at 30 min; ref Kimura et al., manuscript submitted to Eur J Nucl Med Mol Imaging; cited from earlier work
[5] = Anterior cingulate cortex, monkey brain

## [11CH3]Oc1ccc(N2C(=O)CCc3cc(OC4CCN(C5CCC5)CC4)ccc32)cn1 [[^11C]TASP0410457]
[1]; [5]
  V T, Logan graphical analysis, Scan duration 60 min: 18.4 ± 2.7 mL/cm^3
  V T, Logan graphical analysis, Scan duration 70 min: 18.6 ± 2.8 mL/cm^3
  V T, Logan graphical analysis, Scan duration 80 min: 19.1 ± 3.2 mL/cm^3
  V T, Logan graphical analysis, Scan duration 90 min: 19.5 ± 3.4 mL/cm^3
  V T, One-tissue compartment model, Scan duration 90 min: 20.3 ± 3.3 mL/cm^3
[1]; Cerebellum, monkey brain
  V T, Logan graphical analysis, Scan duration 60 min: 12.1 ± 1.2 mL/cm^3
  V T, Logan graphical analysis, Scan duration 70 min: 12.4 ± 1.3 mL/cm^3
  V T, Logan graphical analysis, Scan duration 80 min: 12.7 ± 1.5 mL/cm^3
  V T, Logan graphical analysis, Scan duration 90 min: 13.0 ± 1.7 mL/cm^3
  V T, One-tissue compartment model, Scan duration 90 min: 12.8 ± 1.7 mL/cm^3
[1]; Frontal cortex, monkey brain
  V T, Logan graphical analysis, Scan duration 60 min: 12.3 ± 1.6 mL/cm^3
  V T, Logan graphical analysis, Scan duration 70 min: 12.5 ± 1.7 mL/cm^3
  V T, Logan graphical analysis, Scan duration 80 min: 12.8 ± 1.8 mL/cm^3
  V T, Logan graphical analysis, Scan duration 90 min: 13.0 ± 2.0 mL/cm^3
  V T, One-tissue compartment model, Scan duration 90 min: 13.4 ± 1.8 mL/cm^3
[1]; Hippocampus, monkey brain
  V T, Logan graphical analysis, Scan duration 60 min: 13.0 ± 1.0 mL/cm^3
  V T, Logan graphical analysis, Scan duration 70 min: 13.2 ± 1.0 mL/cm^3
  V T, Logan graphical analysis, Scan duration 80 min: 13.6 ± 1.2 mL/cm^3
  V T, Logan graphical analysis, Scan duration 90 min: 13.9 ± 1.4 mL/cm^3
  V T, One-tissue compartment model, Scan duration 90 min: 13.9 ± 1.3 mL/cm^3
[1]; Occipital cortex, monkey brain
  V T, Logan graphical analysis, Scan duration 60 min: 11.7 ± 1.6 mL/cm^3
  V T, Logan graphical analysis, Scan duration 70 min: 11.8 ± 1.6 mL/cm^3
  V T, Logan graphical analysis, Scan duration 80 min: 12.0 ± 1.8 mL/cm^3
  V T, Logan graphical analysis, Scan duration 90 min: 12.1 ± 1.9 mL/cm^3
  V T, One-tissue compartment model, Scan duration 90 min: 12.7 ± 2.0 mL/cm^3
[1]; Pons-medulla, monkey brain
  V T, Logan graphical analysis, Scan duration 60 min: 8.5 ± 0.6 mL/cm^3
  V T, Logan graphical analysis, Scan duration 70 min: 8.6 ± 0.7 mL/cm^3
  V T, Logan graphical analysis, Scan duration 80 min: 8.8 ± 0.7 mL/cm^3
  V T, Logan graphical analysis, Scan duration 90 min: 9.1 ± 0.9 mL/cm^3
  V T, One-tissue compartment model, Scan duration 90 min: 8.8 ± 0.9 mL/cm^3
[1]; Striatum, monkey brain
  V T, Logan graphical analysis, Scan duration 60 min: 21.2 ± 3.0 mL/cm^3
  V T, Logan graphical analysis, Scan duration 70 min: 21.5 ± 3.0 mL/cm^3
  V T, Logan graphical analysis, Scan duration 80 min: 21.9 ± 3.3 mL/cm^3
  V T, Logan graphical analysis, Scan duration 90 min: 22.6 ± 3.8 mL/cm^3
  V T, One-tissue compartment model, Scan duration 90 min: 23.2 ± 3.6 mL/cm^3
[1]; Temporal cortex, monkey brain
  V T, Logan graphical analysis, Scan duration 60 min: 12.3 ± 1.6 mL/cm^3
  V T, Logan graphical analysis, Scan duration 70 min: 12.4 ± 1.7 mL/cm^3
  V T, Logan graphical analysis, Scan duration 80 min: 12.5 ± 1.8 mL/cm^3
  V T, Logan graphical analysis, Scan duration 90 min: 12.9 ± 2.1 mL/cm^3
  V T, One-tissue compartment model, Scan duration 90 min: 13.3 ± 2.1 mL/cm^3
[1]; Thalamus, monkey brain
  V T, Logan graphical analysis, Scan duration 60 min: 15.1 ± 1.7 mL/cm^3
  V T, Logan graphical analysis, Scan duration 70 min: 15.4 ± 1.9 mL/cm^3
  V T, Logan graphical analysis, Scan duration 80 min: 15.6 ± 1.9 mL/cm^3
  V T, Logan graphical analysis, Scan duration 90 min: 16.0 ± 2.1 mL/cm^3
  V T, One-tissue compartment model, Scan duration 90 min: 16.1 ± 1.8 mL/cm^3
[1]; anesthetized monkeys
  time of peak radioligand retention in the striatum: around 30 min
[1]; anesthetized monkeys, arterial plasma
  time of plasma radioactivity peak: approximately 1 min
[1]; anesthetized monkeys, mean ± S.D.
  peak SUV in the striatum: 5.0 ± 0.8
[1]; monkey
  striatal VT: exceeded 20 mL/cm^3
[1]; monkey brain, Logan's graphical analysis, relative to values for 90 min
  change of VT values when scan endpoint changed between 90 and 60 min: ≤ 7%
[1]; monkey plasma at 90 min
  fraction of unmetabolized radioligand of total plasma radioactivity: 34%
[2]
  radiochemical stability in the final formulation: > 99%
[3]
  binding in the monkey cerebellum and brainstem under blockade: noticeably decreased
[4]
  share of total plasma radioactivity arising from the metabolite: 13%
